In patent US10316039B2, “P2X3 and/or P2X2/3 compounds and methods” (Asana Biosciences, LLC, priority 2013, dated 2019):

Tests used:
P2X3 = biological target: T1, P2X3 (UniProt P56373); assay: P2X3 FLIPR intracellular calcium assay; format: cell-based; conditions: agonist at EC75, species (human or rat) not given
T1 sequence (P56373 1-397): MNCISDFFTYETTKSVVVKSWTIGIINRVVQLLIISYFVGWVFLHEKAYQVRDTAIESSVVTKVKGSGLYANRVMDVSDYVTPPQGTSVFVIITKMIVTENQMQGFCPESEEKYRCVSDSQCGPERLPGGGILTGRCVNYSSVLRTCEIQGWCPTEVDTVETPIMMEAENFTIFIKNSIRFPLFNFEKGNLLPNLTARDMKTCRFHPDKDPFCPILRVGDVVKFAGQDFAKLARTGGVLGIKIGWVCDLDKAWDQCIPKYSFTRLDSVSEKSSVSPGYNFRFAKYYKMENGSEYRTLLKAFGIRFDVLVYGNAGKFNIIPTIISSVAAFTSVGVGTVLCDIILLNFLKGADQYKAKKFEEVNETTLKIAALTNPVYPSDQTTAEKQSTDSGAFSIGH
Description: The FLIPR® assay utilizes cells which express human or rat P2X3 or P2X2/3 receptors. […] The PCR product obtained containing the protein coding sequence of rat P2X2 was cloned into EcoRV-digested and dephosphorylated vector pIRES-puro3 within the multiple cloning site (MCS). See, FIG. 1A.
Rat P2X3 (NCBI Accession No: X91167) was amplified by PCR from rat brain cDNA. The PCR product obtained containing the protein coding sequence of rat P2X3 was cloned into EcoRV-digested and dephosphorylated vector pCDNA-Hygro within the multiple cloning site (MCS) (FIG. 1B). Rat P2X3 cloned into pcDNA-Hygro was then subcloned into pcDNA-5/TO at HindIII (5′) and XhoI (3′) sites within the multiple cloning site (MCS) of the vector (FIG. 1C).
(§1) Transfection was carried out using super-coiled constructs (purified using QIAGEN kit) in antibiotic free, serum free DMEM using Lipofectamine® 2000 (Invitrogen) transfection agent. The DNA constructs rat P2X2 in pIRES-Puro3 and rat P2X3 in pCDNA5/TO were co-transfected into TRex293 cells in order to generate the rP2X2/3 stable line. 50 μg/mL hygromycin (Invitrogen) and 0.5 μg/mL puromycin (Fermentek) were used for selection of stable clones of rP2X2/3. Rat P2X3 in pCDNA5/TO DNA construct was transfected to CHO-TRex cells to generate the rP2×3 stable line and 500 μg/mL hygromycin (Invitrogen) was used as selection antibiotic. Transfected stable colonies were then functionally verified and robust clones suitable for assay were clonally purified through dilutions.
(§2) Cryo-vial containing 6×10^6 cells (human P2X3-HEK/human P2X2/3-TRex293/rat P2X2/3-TRex293/rat P2X3 TRex-CHO) was thawed in a 37° C. water bath. Cells were suspended in 20 mL of respective cell plating media (See annexure for composition) in a 50 mL centrifuge tube. The cell viability was checked with the help of Trypan Blue dye. Upon washing, cells were plated in a black 384-well clear bottomed, sterile poly-D-lysine coated plate such that, each well contained 10,000 cells (15,000/well for hP2X3) in 30 μL cell plating media. The plate was incubated in a 5% CO2 incubator at 37° C. for 24 h.
(§3) The next day, prior to the assay, the cell plating media was removed from each well by decanting and gentle tapping. Thirty μL of FLIPR Calcium 4 dye solution was added to each well. The plate was incubated at 37° C. for 45 min (60 min for hP2X3). The plate was next equilibrated at room temperature for 15 minutes before placing it in a 384 well FLIPR for the assay.
Dilutions were mixed with assay buffer just before performing the assay.
(§4) Compounds were added to the respective wells of the assay-ready cell plate with the help of the FLIPR and fluorescence readings were captured for 5 min to observe any possible agonistic property of the compounds. The plate was then incubated at room temperature for 15 min. The cells were stimulated with respective agonist EC75 concentration and the fluorescence readings were captured for another 5 min by FLIPR. The difference in fluorescence readings in presence of the compounds were compared with that of the control wells (wells having no compound) to calculate the inhibitory potency of the compounds. The IC50 values of the compounds were determined using the Graph pad Prism software.
(vi) Dye Solution Composition • 1×FLIPR Calcium 4 dye in assay buffer (Molecular devices Cat# R8141) • 1.8 mM Probenecid (Sigma Cat# P8761) • pH adjusted to 7.4

P2X2/3 = biological target: T2, P2X2/3 (Homo sapiens, UniProt P56373+Q9UBL9); assay: P2X2/3 FLIPR intracellular calcium assay; format: cell-based; conditions: agonist at EC75, species (human or rat) not given
T2 sequence (Q9UBL9 1-471): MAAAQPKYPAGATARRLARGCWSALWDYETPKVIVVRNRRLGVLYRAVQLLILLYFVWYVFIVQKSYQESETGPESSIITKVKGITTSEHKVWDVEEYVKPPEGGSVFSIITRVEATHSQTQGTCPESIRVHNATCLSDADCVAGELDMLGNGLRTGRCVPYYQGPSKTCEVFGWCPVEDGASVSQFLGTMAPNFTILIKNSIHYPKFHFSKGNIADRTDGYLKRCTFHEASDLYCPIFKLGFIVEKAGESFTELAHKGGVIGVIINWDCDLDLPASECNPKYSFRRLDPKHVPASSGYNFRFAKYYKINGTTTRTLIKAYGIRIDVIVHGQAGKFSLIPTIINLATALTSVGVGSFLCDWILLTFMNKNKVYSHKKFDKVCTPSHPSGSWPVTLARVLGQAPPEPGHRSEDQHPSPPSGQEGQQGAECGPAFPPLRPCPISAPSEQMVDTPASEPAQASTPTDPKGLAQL
T2 sequence (P56373 1-397): T1 sequence (P56373 1-397)
Description: The FLIPR® assay utilizes cells which express human or rat P2X3 or P2X2/3 receptors. Recombinant cells expressing hP2X3 (Cat#6188) and hP2X2/3 (Cat#6179) were procured from Chantest Corp. Rat P2X2 (NCBI Accession No: U14414) was amplified by PCR from PC12 cDNA (a rat adrenal medulla cell line). The PCR product obtained containing the protein coding sequence of rat P2X2 was cloned into EcoRV-digested and dephosphorylated vector pIRES-puro3 within the multiple cloning site (MCS). See, FIG. 1A.
as §1, §2, §3
Compounds were dissolved in DMSO and serially diluted following 11 point half log (3.16 fold) dilution with a starting concentration of 2 mM. Dilutions were mixed with assay buffer just before performing the assay.
as §4
(ii) Cell Plating Media for hP2X3-HEK and hP2X2/3-TRex293 Cells • DMEM/F12 (1:1) HAM media (Invitrogen; Cat#11039) • 1×NEAA (Invitrogen; Cat#11140) • 25 mM HEPES (Invitrogen; Cat#15630) • 1 mM sodium pyruvate (Invitrogen; Cat#11360) • 10% tetracycline negative FBS (PAA; Cat# A15-209) • 1 μg/mL doxycycline (Clontech; Cat#63131) [for hP2X2/3-TRex293 cells only]
(iii) Cell Plating Media for rP2X2/3-TRex293 Cells • DMEM media (Invitrogen; Cat#11965) • 25 mM HEPES (Invitrogen; Cat#15630) • 10% tetracycline negative FBS (PAA; Cat# A15-209) • 1 μg/mL Doxycycline (Clontech; Cat#63131)
(v) Assay Buffer Composition • HBSS (Invitrogen Cat#14025) • 20 mM HEPES (Invitrogen Cat#15630) • 0.01% F127 (Sigma Cat# P2443) • 1.8 mM CaCl2 (Sigma Cat# C5080) • pH adjusted to 7.4 […]

| SMILES | IC50 (P2X3) [nM] | IC50 (P2X2/3) [nM] |
| --- | --- | --- |
| Cc1ccc(-c2cnc3c(-n4nnnc4C(C)C)cc(C(=O)NCc4ccc(C(F)(F)F)nc4)cn23)s1 [Example 152] | > 10000 | 100 to 1000 |
| Cc1ccc(CNC(=O)c2cc(N3CCC(C)CC3)c3ncc(-c4ccc(C)s4)n3c2)cn1 [Example 115] | 1000 to 10000 | 100 to 1000 |
| Cc1ccc(CNC(=O)c2cc(N3CCN(C(N)=O)CC3)c3ncc(-c4ccc(C)s4)n3c2)cn1 [Example 13, 8-(4-Carbamoylpiperazin-1-yl)-N-((6-methylpyridin-3-yl)methyl)-3-(5-methylthiophen-2-yl)imidazo[1,2-a]pyridine-6-carboxamide] | > 10000 | 100 to 1000 |
| Cc1ccc(-c2cnc3c(-c4cnn(CC(N)=O)c4)cc(C(=O)N[C@@H](C)c4nnc[nH]4)cn23)s1 [Example 112] | 100 to 1000 | 1000 to 10000 |
| Cc1ncc(CNC(=O)c2cc(-c3c(C)n[nH]c3C)c3ncc(-c4ccc(C)s4)n3c2)cn1 [Example 111] | > 10000 | 1 to 100 |
| Cc1ccc(-c2cnc3c(-n4nncc4C(F)F)cc(C(=O)N[C@@H](C)c4nnc[nH]4)cn23)s1 [Example 4, (S)—N-(1-(4H-1,2,4-Triazol-3-yl)ethyl)-8-(5-(difluoromethyl)-1H-1,2,3-triazol-1-yl)-3-(5-methylthiophen-2-yl)imidazo[1,2-a]pyridine-6-carboxamide] | 1 to 100 | 1 to 100 |
| Cc1ncc([C@@H](C)NC(=O)c2cc(-n3nncc3C(F)F)c3ncc(-c4ncc(C)s4)n3c2)cn1 [Example 84] | 1 to 100 | 1 to 100 |
| CCc1nnnn1-c1cc(C(=O)NCc2ccc(C)nc2)cn2c(-c3ccc(C)s3)cnc12 [Example 153] | > 10000 | 1 to 100 |
| Cc1ccc(-c2cnc3c(-n4nnnc4C(C)C)cc(C(=O)NC(C)c4cnccn4)cn23)s1 (stereo not shown) [Example 159] | 100 to 1000 | 1000 to 10000 |
| Cc1ncc(CNC(=O)c2cc(-n3nnnc3C(F)F)c3ncc(-c4ncc(C)s4)n3c2)cn1 [Example 172] | 1 to 100 | 1 to 100 |
| Cc1cnc(CNC(=O)c2cc(-n3nncc3C(F)F)c3ncc(-c4ncc(C)s4)n3c2)cn1 [Example 77] | 1 to 100 | 100 to 1000 |
| Cc1ccc(-c2cnc3c(-n4nncc4C(F)(F)F)cc(C(=O)N[C@@H](C)c4nnc[nH]4)cn23)s1 [Example 26] | 1 to 100 | 1 to 100 |
| Cc1ccc(-c2cnc3c(N(C)C(=O)C(C)C)cc(C(=O)N[C@@H](C)c4nnc[nH]4)cn23)s1 [Example 20, (S)—N-(1-(4H-1,2,4-Triazol-3-yl)ethyl)-8-(N-methylisobutyramido)-3-(5-methylthiophen-2-yl)imidazo[1,2-a]pyridine-6-carboxamide] | 1 to 100 | 100 to 1000 |
| COc1ccc(CNC(=O)c2cc(-n3nnnc3C3CCC3)c3ncc(-c4ccc(C)s4)n3c2)cc1 [Example 163] | > 10000 |  |
| Cc1ccc(CNC(=O)c2cc(-n3nncc3C(F)F)c3ncc(-c4ccc(C)s4)n3c2)cn1 [Example 27] | 1 to 100 |  |
| Cc1ccc(-c2cnc3c(N4CCC(F)(F)CC4)cc(C(=O)N[C@@H](C)c4cc[nH]n4)cn23)s1 [Example 143] | 1000 to 10000 |  |

Continued, values first:

| IC50 (P2X3) [nM] | IC50 (P2X2/3) [nM] | SMILES |
| --- | --- | --- |
| 1 to 100 | 100 to 1000 | COC1CCCN(c2cc(C(=O)N[C@@H](C)c3nnc[nH]3)cn3c(-c4ccc(C)s4)cnc23)C1 (stereo partly shown) [Example 141] |
| 1 to 100 | 100 to 1000 | CCc1cnnn1-c1cc(C(=O)N[C@@H](C)c2nnc[nH]2)cn2c(-c3ccc(C)s3)cnc12 [Example 23] |
| 1 to 100 | 100 to 1000 | Cc1ccc(-c2cnc3c(Nc4ccccc4)cc(C(=O)N[C@@H](C)c4nnc[nH]4)cn23)s1 [Example 7, (S)—N-(1-(4H-1,2,4-Triazol-3-yl)ethyl)-3-(5-methylthiophen-2-yl)-8-(phenylamino)imidazo[1,2-a]pyridine-6-carboxamide] |
| 1 to 100 | 100 to 1000 | Cc1ncc(CNC(=O)c2cc(-n3nncc3C(F)(F)F)c3ncc(-c4ncc(C)s4)n3c2)cn1 [Example 68] |
| 1 to 100 | 1 to 100 | Cc1ccc(-c2cnc3c(-n4nnnc4CC(F)(F)F)cc(C(=O)N[C@@H](C)c4nnc[nH]4)cn23)s1 [Example 181] |
| 1 to 100 | 1 to 100 | Cc1ncc(CNC(=O)c2cc(-n3nncc3C(F)(F)F)c3ncc(-c4ccc(C)s4)n3c2)cn1 [Example 39] |
| 1 to 100 | 1 to 100 | Cc1noc(C(C)NC(=O)c2cc(-n3nnnc3C(F)F)c3ncc(-c4ccc(C)s4)n3c2)n1 (stereo in doubt) [Example 19, (R)-8-(5-(Difluoromethyl)-1H-tetrazol-1-yl)-N-(1-(3-methyl-1,2,4-oxadiazol-5-yl)ethyl)-3-(5-methylthiophen-2-yl)imidazo[1,2-a]pyridine-6-carboxamide] |
| 1 to 100 | 100 to 1000 | Cc1csc(-c2cnc3c(N4CCC(F)(F)CC4)cc(C(=O)N[C@@H](C)c4nnc[nH]4)cn23)c1 [Example 136] |
| 1 to 100 | 1 to 100 | COc1ccc(CNC(=O)c2cc(-n3nncc3C(F)F)c3ncc(-c4ccc(C)s4)n3c2)cn1 [Example 83] |
| 1 to 100 | 1 to 100 | Cc1cnc(CNC(=O)c2cc(-n3nncc3C(F)F)c3ncc(-c4ccc(C)s4)n3c2)cn1 [Example 32] |
